Values of other authors in patent publication US9011938B2, “Methods and formulations for treating chronic liver disease” (priority 2008, dated 2015).
Where a name gives a salt, the structure may show the parent alone.

Columns and labels:
[1] = tested on: tumor necrosis factor-alpha (TNF-α); conditions: subjects suffering from alcoholic hepatitis
[2] = tested on: rats with fatty liver induced by a high-fat diet
[3] = tested on: HCV internal ribosome entry site (IRES); conditions: in vitro, dose-dependant, not competitive binding
[4] = tested on: mice induced with an immunological liver injury

N[C@@H](CCC(=O)N[C@@H](CS)C(=O)NCC(=O)O)C(=O)O [glutathione, Glutathione]
TNF-α activity [1]: inhibits

COc1ccc2cc3[n+](cc2c1OC)CCc1cc2c(cc1-3)OCO2 [berberine hydrochloride]
hepatic fat degeneration [2]: attenuates

cyanocobalamin [vitamin B12]
HCV IRES-dependent translation of a reporter gene [3]: inhibit

C[C@@]12C[C@@]3(O)O[C@@H](O1)[C@]1(COC(=O)c4ccccc4)[C@H]3C[C@@]12O[C@@H]1O[C@H](CO)[C@@H](O)[C@H](O)[C@H]1O [paeoniflorin]
increase in TNF-alpha, lipopolysaccharide binding protein, and CD14 mRNA expression in mouse liver [4]: significantly decreased
serum ALT activities [4]: significantly decrease
